Reference: patent US9023789B2, “Amylin analogs and pharmaceutical compositions thereof” (Novo Nordisk A/S, priority 2012, dated 2015)
Numbered stars: 1 amine (or outer) side, 2 acyl side, 3 side chain; on linkers, the order of the positions; unused ones are H or OH. Bridge positions count the residues as written; N and C are the ends. Side chains are listed from the residue outwards. Peptide text beside a SMILES is read from it. * marks the point of attachment. C20 diacid = O=C(O)CCCCCCCCCCCCCCCCCCC(=O)*; γGlu = O=C(O)[C@H](CCC(=O)[*:2])N[*:1]

Experiments:
[1] = target: T1, human amylin 3(a) receptor (human calcitonin receptor + RAMP-3) in BHK570 cells (Homo sapiens, UniProt O60896+P30988); assay: ASSAY (II)a functional assay, human amylin receptor (CRE luciferase); type: cell-based
T1 construct: expressed in transfected cells
Method in brief: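 Ligand exposure 3 h at 37 °C, 5% CO2 in DMEM with 10% FBS, 10 mM Hepes pH 7.4. cAMP-driven luciferase read by luminescence after 30 min LucLite at room temperature.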

[2] = target: T2, human amylin receptor (membranes from Amylin 3(a)/CRE-luc cells) (Homo sapiens, UniProt O60896+P30988); assay: ASSAY (V) binding to the human amylin receptor (SPA, 125I-rat amylin);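 also: competition binding of cell membranes (35 ng/µL) mixed with SPA beads in 384-well plates at 40 µL total volume, read by scintillation counting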
T2 construct: expressed in transfected cells
T2 sequence (P30988 25-474): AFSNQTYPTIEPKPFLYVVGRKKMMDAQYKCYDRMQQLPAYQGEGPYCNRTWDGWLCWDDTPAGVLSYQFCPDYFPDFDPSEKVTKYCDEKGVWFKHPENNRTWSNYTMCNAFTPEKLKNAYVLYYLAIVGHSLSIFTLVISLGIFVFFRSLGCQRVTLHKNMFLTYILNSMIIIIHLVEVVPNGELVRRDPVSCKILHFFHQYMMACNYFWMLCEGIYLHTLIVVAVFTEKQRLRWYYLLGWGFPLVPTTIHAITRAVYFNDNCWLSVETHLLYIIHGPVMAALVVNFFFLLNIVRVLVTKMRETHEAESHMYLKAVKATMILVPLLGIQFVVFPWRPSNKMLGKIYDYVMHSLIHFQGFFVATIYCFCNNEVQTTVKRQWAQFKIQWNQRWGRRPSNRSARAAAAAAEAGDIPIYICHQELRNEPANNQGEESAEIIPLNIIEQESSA
T2 sequence (O60896 24-148 partner): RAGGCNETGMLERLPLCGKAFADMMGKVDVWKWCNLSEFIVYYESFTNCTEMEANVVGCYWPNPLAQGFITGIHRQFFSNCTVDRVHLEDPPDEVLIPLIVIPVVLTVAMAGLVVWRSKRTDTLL

[3] = hCTR funct. EC50 divided by hAmylin-R funct. EC50
[4] = hCTR funct. EC50 over hAmylin-R funct. EC50
[5] = human functional selectivity: hCTR funct. EC50 / hAmylin-R funct. EC50
[6] = Table 5, selectivity, hCTR bind IC50 / hAmylin-R bind IC50
[7] = Table 5a, selectivity, hCTR bind IC50 / hAmylin-R bind IC50
[8] = Table 5b, selectivity, hCTR bind IC50 / hAmylin-R bind IC50
[9] = Table 5c, selectivity, hCTR bind IC50 / hAmylin-R bind IC50
[10] = Table 7, human binding selectivity, included for comparison
[11] = Table 7a (preferred compounds), human binding selectivity, included for comparison
[12] = ratio of human calcitonin receptor binding IC50 to human amylin receptor binding IC50
[13] = hCTR funct. EC50 / hAmylin-R funct. EC50

SMILES	Ratio hCT/hAmylin funct. [1, 3]	Ratio hCT/hAmylin funct. [1, 4]	Ratio hCT/hAmylin funct. [1, 5]	Ratio hCT/hAmylin binding [2, 6]	Ratio hCT/hAmylin binding [2, 7]	Ratio hCT/hAmylin binding [2, 8]	Ratio hCT/hAmylin binding [2, 9]	Ratio hCT/hAmylin binding [2, 10]	Ratio hCT/hAmylin binding [2, 11]	Ratio hCT/hAmylin binding [2, 12]	Ratio hCT/hAmylin funct. [1, 13]
CC[C@H](C)[C@H](NC(=O)[C@H](C)NC(=O)CNC(=O)[C@H](Cc1ccccc1)NC(=O)[C@H](CC(N)=O)NC(=O)[C@@H]1CCCN1C(=O)[C@H](CO)NC(=O)[C@H](CO)NC(=O)[C@H](Cc1c[nH]cn1)NC(=O)[C@H](CCCNC(=N)N)NC(=O)[C@H](CC(C)C)NC(=O)[C@H](Cc1ccccc1)NC(=O)[C@H](CC(N)=O)NC(=O)[C@H](C)NC(=O)[C@H](CC(C)C)NC(=O)[C@H](CCCNC(=N)N)NC(=O)[C@H](CCC(N)=O)NC(=O)[C@@H](NC(=O)[C@H](C)NC(=O)[C@@H]1CSSC[C@H](NC(=O)[C@@H](N)CCCCNC(=O)CC[C@H](NC(=O)CCCCCCCCCCCCCCC(=O)O)C(=O)O)C(=O)N[C@@H](CC(N)=O)C(=O)N[C@@H]([C@@H](C)O)C(=O)N[C@@H](C)C(=O)N[C@@H]([C@@H](C)O)C(=O)N1)[C@@H](C)O)C(=O)N1CCC[C@H]1C(=O)N[C@@H](CO)C(=O)N[C@@H](CO)C(=O)N[C@H](C(=O)N[C@@H](CC(N)=O)C(=O)N[C@H](C(=O)NCC(=O)N[C@@H](Cc1c[nH]cn1)C(=O)N[C@@H](CC(N)=O)C(=O)N[C@H](C(=O)N[C@@H](Cc1ccc(O)cc1)C(N)=O)[C@@H](C)O)C(C)C)[C@@H](C)O [Example 111]	65.1	65.1	65.1	18.5	18.5	18.5	18.5	18.5	18.5	18.5	
CC[C@H](C)[C@H](NC(=O)[C@H](C)NC(=O)CNC(=O)[C@H](Cc1ccccc1)NC(=O)[C@H](CC(N)=O)NC(=O)[C@@H]1CCCN1C(=O)[C@H](CO)NC(=O)[C@H](CO)NC(=O)[C@H](Cc1c[nH]cn1)NC(=O)[C@H](CCCNC(=N)N)NC(=O)[C@H](CC(C)C)NC(=O)[C@H](Cc1ccccc1)NC(=O)[C@H](CC(N)=O)NC(=O)[C@H](C)NC(=O)[C@H](CC(C)C)NC(=O)[C@H](CCCNC(=N)N)NC(=O)[C@H](CCC(N)=O)NC(=O)[C@@H](NC(=O)[C@H](C)NC(=O)[C@@H]1CSSC[C@H](NC(=O)[C@@H](N)CCCCNC(=O)CC[C@H](NC(=O)CCCCCCCCCCCCC(=O)O)C(=O)O)C(=O)N[C@@H](CC(N)=O)C(=O)N[C@@H]([C@@H](C)O)C(=O)N[C@@H](C)C(=O)N[C@@H]([C@@H](C)O)C(=O)N1)[C@@H](C)O)C(=O)N1CCC[C@H]1C(=O)N[C@@H](CO)C(=O)N[C@@H](CO)C(=O)N[C@H](C(=O)N[C@@H](CC(N)=O)C(=O)N[C@H](C(=O)NCC(=O)N[C@@H](Cc1c[nH]cn1)C(=O)N[C@@H](CC(N)=O)C(=O)N[C@H](C(=O)N[C@@H](Cc1ccc(O)cc1)C(N)=O)[C@@H](C)O)C(C)C)[C@@H](C)O [Example 112]	38.8	38.8	38.8	23.5	23.5	23.5	23.5	23.5	23.5	23.5	
CC[C@H](C)[C@H](NC(=O)[C@H](C)NC(=O)CNC(=O)[C@H](Cc1ccccc1)NC(=O)[C@H](CC(N)=O)NC(=O)[C@@H]1CCCN1C(=O)[C@H](CO)NC(=O)[C@H](CO)NC(=O)[C@H](Cc1c[nH]cn1)NC(=O)[C@H](CCCNC(=N)N)NC(=O)[C@H](CC(C)C)NC(=O)[C@H](Cc1ccccc1)NC(=O)[C@H](CC(N)=O)NC(=O)[C@H](C)NC(=O)[C@H](CC(C)C)NC(=O)[C@H](CCCNC(=N)N)NC(=O)[C@H](CCC(N)=O)NC(=O)[C@@H](NC(=O)[C@H](C)NC(=O)[C@@H]1CSSC[C@H](NC(=O)[C@@H](N)CCCCNC(=O)CC[C@H](NC(=O)CCCCCCCCCCCCCCCCC(=O)O)C(=O)O)C(=O)N[C@@H](CC(N)=O)C(=O)N[C@@H]([C@@H](C)O)C(=O)N[C@@H](C)C(=O)N[C@@H]([C@@H](C)O)C(=O)N1)[C@@H](C)O)C(=O)N1CCC[C@H]1C(=O)N[C@@H](CO)C(=O)N[C@@H](CO)C(=O)N[C@H](C(=O)N[C@@H](CC(N)=O)C(=O)N[C@H](C(=O)NCC(=O)N[C@@H](Cc1c[nH]cn1)C(=O)N[C@@H](CC(N)=O)C(=O)N[C@H](C(=O)N[C@@H](Cc1ccc(O)cc1)C(N)=O)[C@@H](C)O)C(C)C)[C@@H](C)O [Example 113]	60.9	60.9	60.9	59.4	59.4	59.4	59.4	59.4	59.4	59.4	
CC[C@H](C)[C@H](NC(=O)[C@H](C)NC(=O)CNC(=O)[C@H](Cc1ccccc1)NC(=O)[C@H](CC(N)=O)NC(=O)[C@@H]1CCCN1C(=O)[C@H](CO)NC(=O)[C@H](CO)NC(=O)[C@H](Cc1c[nH]cn1)NC(=O)[C@H](CCCNC(=N)N)NC(=O)[C@H](CC(C)C)NC(=O)[C@H](Cc1ccccc1)NC(=O)[C@H](CCC(=O)O)NC(=O)[C@H](C)NC(=O)[C@H](CC(C)C)NC(=O)[C@H](CCCNC(=N)N)NC(=O)[C@H](CCC(N)=O)NC(=O)[C@@H](NC(=O)[C@H](C)NC(=O)[C@@H]1CSSC[C@H](NC(=O)[C@@H](N)CCCCNC(=O)CC[C@H](NC(=O)CCCCCCCCCCCCCCCCCCC(=O)O)C(=O)O)C(=O)N[C@@H](CC(N)=O)C(=O)N[C@@H]([C@@H](C)O)C(=O)N[C@@H](C)C(=O)N[C@@H]([C@@H](C)O)C(=O)N1)[C@@H](C)O)C(=O)N1CCC[C@H]1C(=O)N[C@@H](CO)C(=O)N[C@@H](CO)C(=O)N[C@H](C(=O)N[C@@H](CC(N)=O)C(=O)N[C@H](C(=O)NCC(=O)N1CCC[C@H]1C(=O)N[C@@H](CC(N)=O)C(=O)N[C@H](C(=O)N1CCC[C@H]1C(N)=O)[C@@H](C)O)C(C)C)[C@@H](C)O [Example 114] (H-K([γGlu-C20 diacid])CNTATCATQRLAEFLRHSSPNFGAIPSSTNVGPNTP-NH2; disulfide 2-7 (inferred); N-terminus assumed)	0.9	0.9	0.9	0.5				0.5			0.9
CC[C@H](C)[C@H](NC(=O)[C@H](C)NC(=O)CNC(=O)[C@H](Cc1ccccc1)NC(=O)[C@H](CC(N)=O)NC(=O)[C@@H]1CCCN1C(=O)[C@H](CO)NC(=O)[C@H](CO)NC(=O)[C@H](Cc1c[nH]cn1)NC(=O)[C@H](CCCNC(=N)N)NC(=O)[C@H](CC(C)C)NC(=O)[C@H](Cc1ccccc1)NC(=O)[C@H](Cc1c[nH]cn1)NC(=O)[C@H](C)NC(=O)[C@H](CC(C)C)NC(=O)[C@H](CCCNC(=N)N)NC(=O)[C@H](CCC(N)=O)NC(=O)[C@@H](NC(=O)[C@H](C)NC(=O)[C@@H]1CSSC[C@H](NC(=O)[C@@H](N)CCCCNC(=O)CC[C@H](NC(=O)CCCCCCCCCCCCCCCCCCC(=O)O)C(=O)O)C(=O)N[C@@H](CC(N)=O)C(=O)N[C@@H]([C@@H](C)O)C(=O)N[C@@H](C)C(=O)N[C@@H]([C@@H](C)O)C(=O)N1)[C@@H](C)O)C(=O)N1CCC[C@H]1C(=O)N[C@@H](CO)C(=O)N[C@@H](CO)C(=O)N[C@H](C(=O)N1CCC[C@H]1C(=O)N[C@H](C(=O)NCC(=O)N1CCC[C@H]1C(=O)N[C@@H](CC(N)=O)C(=O)N[C@H](C(=O)N[C@@H](Cc1ccc(O)cc1)C(N)=O)[C@@H](C)O)C(C)C)[C@@H](C)O [Example 116] (H-K([γGlu-C20 diacid])CNTATCATQRLAHFLRHSSPNFGAIPSSTPVGPNTY-NH2; disulfide 2-7)	4.9		4.9	24.8	24.8	24.8	24.8	24.8	24.8	24.8	4.9
